Measured values reported in patent US8796244B2, “Imidazopyridine derivatives as inhibitors of receptor tyrosine kinases” (Astex Therapeutics Ltd, priority 2008, dated 2014).
Counter-ions that a name gives are not always drawn. Like-named read-outs stand apart in the source and are kept apart here.

How the values were obtained:
VEGFR2 = VEGFR2 (Homo sapiens (Human), UniProt P35968); assay: VEGFR2 in vitro kinase inhibitory activity assay (TRF, Flt3 substrate); assay type: biochemical; settings: 1 h, read-out: VEGFR2 % I
Sequence of VEGFR2 (P35968 20-1356): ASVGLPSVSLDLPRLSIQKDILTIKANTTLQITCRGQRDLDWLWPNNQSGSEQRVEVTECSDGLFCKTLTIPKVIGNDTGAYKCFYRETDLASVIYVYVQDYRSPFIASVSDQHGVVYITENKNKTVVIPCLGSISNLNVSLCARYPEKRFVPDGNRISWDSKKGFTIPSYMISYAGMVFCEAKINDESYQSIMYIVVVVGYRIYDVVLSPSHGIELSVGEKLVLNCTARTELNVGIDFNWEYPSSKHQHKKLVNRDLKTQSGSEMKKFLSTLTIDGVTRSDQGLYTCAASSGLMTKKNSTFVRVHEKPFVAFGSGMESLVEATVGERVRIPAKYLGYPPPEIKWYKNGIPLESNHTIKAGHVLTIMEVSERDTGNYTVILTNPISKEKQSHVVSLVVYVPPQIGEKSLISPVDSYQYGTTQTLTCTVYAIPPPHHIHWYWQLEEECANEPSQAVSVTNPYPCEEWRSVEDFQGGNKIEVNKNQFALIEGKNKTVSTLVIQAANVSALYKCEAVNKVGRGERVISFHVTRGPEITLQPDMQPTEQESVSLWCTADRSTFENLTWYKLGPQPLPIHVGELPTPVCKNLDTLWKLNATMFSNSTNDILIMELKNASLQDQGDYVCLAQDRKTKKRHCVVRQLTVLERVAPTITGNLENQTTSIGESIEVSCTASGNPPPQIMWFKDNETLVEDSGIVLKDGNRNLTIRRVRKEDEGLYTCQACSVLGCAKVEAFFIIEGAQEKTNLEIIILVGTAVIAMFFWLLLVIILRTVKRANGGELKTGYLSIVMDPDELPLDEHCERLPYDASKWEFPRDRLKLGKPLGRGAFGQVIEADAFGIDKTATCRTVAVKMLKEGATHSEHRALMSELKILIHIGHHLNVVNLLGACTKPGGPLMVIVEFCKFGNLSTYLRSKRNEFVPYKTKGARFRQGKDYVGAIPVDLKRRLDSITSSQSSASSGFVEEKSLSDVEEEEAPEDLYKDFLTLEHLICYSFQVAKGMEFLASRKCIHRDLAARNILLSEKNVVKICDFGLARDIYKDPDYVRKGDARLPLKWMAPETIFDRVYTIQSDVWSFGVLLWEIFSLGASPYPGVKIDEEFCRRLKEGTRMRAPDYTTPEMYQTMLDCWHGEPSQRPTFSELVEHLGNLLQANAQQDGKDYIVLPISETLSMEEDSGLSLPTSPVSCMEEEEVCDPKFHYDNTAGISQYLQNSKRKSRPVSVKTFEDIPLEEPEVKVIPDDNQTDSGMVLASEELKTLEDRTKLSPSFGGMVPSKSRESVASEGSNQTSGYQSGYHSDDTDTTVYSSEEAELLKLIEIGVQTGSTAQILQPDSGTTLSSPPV

[1] = tested on: parental wild-type Ba/F3 cells; assay: Ba/F3 (WT) cell proliferation assay (Alamar Blue); assay type: cell-based; settings: Mus musculus; for inhibition at 3 µM / inhibition at 1 µM / inhibition at 10 µM: BaF3, read-out: BaF3 WT prolif, % inhibition
[2] = tested on: LP-1 cell line (FGF-1/Heparin induced pERK); assay: Cell-based pERK ELISA, LP-1 cells; settings: Homo sapiens; for IC50: LP-1, read-out: LP-1 pERK ELISA (μM)
[3] = BaF3, 72 hours, Alamar Blue, read-out: BaF3 WT prolif

**Q.** Which results are given for O=C(NCC(F)(F)F)Nc1cc(OC2CCCC2)cc(-c2cnc3cc(-c4ncccn4)ccn23)c1 [Compound 284]?
**A.** inhibition at 10 µM (VEGFR2; at 10 μM): 62%; inhibition at 3 µM [1]: 14%; IC50 [1, 3]: 3.4 µM

**Q.** How did the inhibition at 3 µM (VEGFR2) turn out when COCCOc1cc(NC(=O)NCC(F)(F)F)cc(-c2cnc3cc(-c4ncc(F)c(N)n4)ccn23)c1 [Compound 285] was run?
**A.** 51%

**Q.** What about the inhibition at 1 µM [1] of the same compound?
**A.** 12%

**Q.** What about the inhibition at 10 µM [1] of the same compound?
**A.** 10%

**Q.** For Cc1cc(NC(=O)NCC(F)(F)F)cc(-c2cnc3cc(-c4ncc(F)c(N)n4)ccn23)c1 [Compound 291], which inhibition at 0.98 µM (VEGFR2; at 0.98 μM) is on record?
**A.** 57%

**Q.** And the inhibition at 1 µM [1]?
**A.** 24%

**Q.** Which inhibition at 1 µM (VEGFR2) does the source give for Cc1cc(NC(=O)NCC(F)(F)F)cc(-c2cnc3cc(-c4ccnc(C(F)(F)F)n4)ccn23)c1 [Compound 306] here?
**A.** 60%

**Q.** What about the inhibition at 10 µM [1] of the same compound?
**A.** 0%

**Q.** How did the inhibition at 0.978 µM (VEGFR2) turn out when Nc1nc(-c2ccn3c(-c4cc(NC(=O)NCC(F)(F)F)ccc4F)cnc3c2)ncc1F [Compound 311] was run?
**A.** 20%

**Q.** What about the inhibition at 3 µM [1] of the same compound?
**A.** 2%

**Q.** And the inhibition at 10 µM [1]?
**A.** 32%

**Q.** Which inhibition at 3 µM (VEGFR2) does the source give for CCCCOC(=O)Nc1nc(-c2ccn3c(-c4cccc(NC(=O)NCC(F)(F)F)c4)cnc3c2)ncc1F [Compound 314] here?
**A.** 62%

**Q.** And the inhibition at 10 µM [1]?
**A.** 21%

**Q.** For Cc1ccc(NC(=O)NCC(F)(F)F)cc1-c1cnc2cc(C#Cc3cncn3C)ccn12 [Compound 326], which inhibition at 0.978 µM (VEGFR2) is on record?
**A.** 45%

**Q.** What about the inhibition at 10 µM [1] of the same compound?
**A.** 18%

**Q.** How did the IC50 [2] turn out when Nc1ccc(-c2ccn3c(-c4cccc(NC(=O)NCC(F)(F)F)c4)cnc3c2)nc1 [Example 124, 1-{3-[7-(5-Amino-pyridin-2-yl)-imidazo[1,2-a]pyridin-3-yl]-phenyl}-3-(2,2,2-trifluoro-ethyl)-urea hydrochloride] was run?
**A.** 0.024 µM

**Q.** And the IC50 ([1]; BaF3, 72 h, read-out: BaF3 WT prolif (μM))?
**A.** 0.27 µM

**Q.** For O=C(NCC(F)(F)F)Nc1cccc(-c2cnc3cc(-c4ccc(=O)n(CCO)n4)ccn23)c1 [Example 126, 1-(3-{7-[1-(2-Hydroxy-ethyl)-6-oxo-1,6-dihydro-pyridazin-3-yl]-imidazol[1,2-a]pyridin-3-yl}-phenyl)-3-(2,2,2-trifluoro-ethyl)-urea], which IC50 [2] is on record?
**A.** 0.98 µM

**Q.** What about the inhibition at 10 µM [1] of the same compound?
**A.** 3.7%

**Q.** With CNc1ccc(-c2ccn3c(-c4cccc(NC(=O)NCC(F)(F)F)c4)cnc3c2)nn1 [Example 132, 1-{3-[7-(6-Methylamino-pyridazin-3-yl)-imidazo[1,2-a]pyridin-3-yl]-phenyl}-3-(2,2,2-trifluoro-ethyl)-urea] as the compound, how does the IC50 [2] read?
**A.** 0.172 µM

**Q.** What about the inhibition at 10 µM [1] of the same compound?
**A.** 22.9%

**Q.** With O=C(NCC(F)(F)F)Nc1cccc(-c2cnc3cc(-c4ccc(N5CCCC(O)C5)nn4)ccn23)c1 (stereo not drawn) [Example 133, 1-(3-{7-[6-(3-Hydroxy-piperidin-1-yl)-pyridazin-3-yl]-imidazo[1,2-a]pyridin-3-yl}-phenyl)-3-(2,2,2-trifluoro-ethyl)-urea] as the compound, how does the IC50 [2] read?
**A.** 0.0714 µM

**Q.** What about the inhibition at 3 µM [1] of the same compound?
**A.** 34%

**Q.** What about the inhibition at 10 µM [1] of the same compound?
**A.** 31%

**Q.** How did the IC50 [2] turn out when Cc1cnnc(-c2ccn3c(-c4cccc(NC(=O)NCC(F)(F)F)c4)cnc3c2)c1 [Example 137, 1-{3-[7-(5-Methyl-pyridazin-3-yl)-imidazo[1,2-a]pyridin-3-yl]-phenyl}-3-(2,2,2-trifluoro-ethyl)-urea] was run?
**A.** 0.034 µM

**Q.** And the inhibition at 10 µM [1]?
**A.** 23%

**Q.** For COc1cnc(-c2ccn3c(-c4cccc(NC(=O)NCC(F)(F)F)c4)cnc3c2)nc1 [Example 138, 1-{3-[7-(5-Methoxy-pyrimidin-2-yl)-imidazo[1,2-a]pyridin-3-yl]-phenyl}-3-(2,2 ,2-trifluoro-ethyl)-urea], which IC50 [2] is on record?
**A.** 0.038 µM

**Q.** What about the inhibition at 3 µM [1] of the same compound?
**A.** 36%

**Q.** What does the source list for O=C(NCC(F)(F)F)Nc1cccc(-c2cnc3cc(-c4nccnn4)ccn23)c1 [Example 141, 1-[3-(7-[1,2,4]-Triazin-3-yl-imidazo[1,2-a]pyridin-3-yl)-phenyl]-3-(2,2,2-trifluoro-ethyl)-urea]?
**A.** IC50 [2]: 0.11 µM; IC50 [1, 3]: 0.042 µM

**Q.** How did the IC50 [2] turn out when CN(C)CCCOc1ccc(-c2ccn3c(-c4cccc(NC(=O)NCC(F)(F)F)c4)cnc3c2)cn1 [Example 144, 1-(3-{7-[6-(3-Dimethylamino-propoxy)-pyridin-3-yl]-imidazo[1,2-a]pyridin-3-yl}-phenyl)-3-(2,2,2-trifluoro-ethyl)-urea] was run?
**A.** 0.13 µM

**Q.** What about the IC50 [1, 3] of the same compound?
**A.** 3.6 µM

**Q.** With O=C(NCC(F)(F)F)Nc1cncc(-c2cnc3cc(-c4cnn(C5CCNCC5)c4)ccn23)c1 [Example 152, 1-{5-[7-(1-Piperidin-4-yl-1H-pyrazol-4-yl)-imidazo[1,2-a]pyridin-3-yl]-pyridin-3-yl}-3-(2,2,2-trifluoro-ethyl)-urea] as the compound, how does the IC50 [2] read?
**A.** 3.3 µM

**Q.** And the inhibition at 10 µM [1]?
**A.** 10%

**Q.** How did the IC50 [2] turn out when NC(=O)Nc1cccc(-c2cnc3cc(-c4ccc(F)cc4)ccn23)c1 [Example 154, {3-[7-(4-Fluoro-phenyl)-imidazo[1,2-a]pyridin-3-yl]-phenyl}-urea] was run?
**A.** 0.086 µM

**Q.** What about the IC50 [1, 3] of the same compound?
**A.** 5.6 µM

**Q.** Which inhibition at 1 µM (VEGFR2) does the source give for Cc1cc(C)nc(-c2ccn3c(-c4cccc(NC(=O)NCC(F)(F)F)c4)cnc3c2)n1 [Example 160] here?
**A.** 49.5%

**Q.** Which results are given for CNc1ncc(-c2ccn3c(-c4cccc(NC(=O)NCC(F)(F)F)c4)cnc3c2)cc1C [Example 161]?
**A.** IC50 [2]: 0.01 µM; IC50 [1, 3]: 0.15 µM

**Q.** How did the IC50 [2] turn out when CCNC(=O)Nc1cccc(-c2cnc3cc(-c4ncc(F)c(N)n4)ccn23)c1 [Example 163] was run?
**A.** 0.22 µM

**Q.** What about the inhibition at 3 µM [1] of the same compound?
**A.** 38%

**Q.** And the inhibition at 10 µM [1]?
**A.** 11%

**Q.** What does the source list for O=C(NCC(F)(F)F)Nc1cccc(-c2cnc3cc(-c4ncc(F)c(NCCO)n4)ccn23)c1 [Example 164]?
**A.** IC50 [2]: 0.26 µM; IC50 [1, 3]: 4.2 µM

**Q.** For Nc1nc(-c2ccn3c(-c4cccc(NC(=O)NC5CC5)c4)cnc3c2)ncc1F [Example 166], which IC50 [2] is on record?
**A.** 0.29 µM

**Q.** What about the inhibition at 10 µM [1] of the same compound?
**A.** 0%

**Q.** Which results are given for NC(=O)Nc1cccc(-c2cnc3cc(-c4ncc(F)c(N)n4)ccn23)c1 [Example 167]?
**A.** inhibition at 10 µM ([2]; LP-1, read-out: LP-1 pERK ELISA, % inhibition): 60%; inhibition at 10 µM [1]: 0%

**Q.** Which results are given for Nc1nc(-c2ccn3c(-c4cncc(NC(=O)NCC(F)(F)F)c4)cnc3c2)ncc1F [Example 168]?
**A.** IC50 [2]: 0.43 µM; inhibition at 10 µM [1]: 0%

**Q.** With COc1cnc(-c2ccn3c(-c4cccc(NC(=O)NCC(F)(F)F)c4)cnc3c2)nc1N [Example 173] as the compound, how does the IC50 [2] read?
**A.** 0.052 µM

**Q.** What about the inhibition at 3 µM [1] of the same compound?
**A.** 29.5%

**Q.** What about the inhibition at 10 µM [1] of the same compound?
**A.** 22%

**Q.** What does the source list for Nc1cnc(-c2ccn3c(-c4cccc(NC(=O)NCC(F)(F)F)c4)cnc3c2)nc1 [Example 174]?
**A.** IC50 [2]: 0.49 µM; IC50 [1, 3]: 1.5 µM

**Q.** Cc1cnc(-c2ccn3c(-c4cccc(NC(=O)NCC(F)(F)F)c4)cnc3c2)nc1N [Example 175] was tested. Which IC50 [2] did it give?
**A.** 0.077 µM

**Q.** And the IC50 [1, 3]?
**A.** 10 µM

**Q.** How did the IC50 [2] turn out when Cc1cnc(N)nc1-c1ccn2c(-c3cccc(NC(=O)NCC(F)(F)F)c3)cnc2c1 [Example 176] was run?
**A.** 0.33 µM

**Q.** What about the inhibition at 10 µM [1] of the same compound?
**A.** 59%

**Q.** With Nc1nc(-c2ccn3c(-c4cccc(NC(=O)NCC(F)(F)F)c4)cnc3c2)ncc1C(F)(F)F [Example 178] as the compound, how does the IC50 [2] read?
**A.** 0.018 µM

**Q.** And the IC50 [1, 3]?
**A.** 4.52 µM

**Q.** Which IC50 [2] does the source give for COc1nccc(-c2ccn3c(-c4cccc(NC(=O)NCC(F)(F)F)c4)cnc3c2)n1 [Example 181] here?
**A.** 0.046 µM

**Q.** What about the IC50 [1, 3] of the same compound?
**A.** 0.49 µM

**Q.** For NCCNc1nc(-c2ccn3c(-c4cccc(NC(=O)NCC(F)(F)F)c4)cnc3c2)ncc1F [Example 182], which IC50 [2] is on record?
**A.** 2.5 µM

**Q.** And the IC50 [1, 3]?
**A.** 10 µM

**Q.** Which results are given for COc1cc(-c2ccn3c(-c4cccc(NC(=O)NCC(F)(F)F)c4)cnc3c2)ncn1 [Example 183]?
**A.** IC50 [2]: 0.028 µM; IC50 [1, 3]: 0.29 µM

**Q.** Which results are given for NC(=O)c1ccnc(-c2ccn3c(-c4cccc(NC(=O)NCC(F)(F)F)c4)cnc3c2)n1 [Example 185]?
**A.** IC50 [2]: 0.14 µM; inhibition at 3 µM [1]: 0%

**Q.** How did the IC50 [2] turn out when O=C(NCC(F)(F)F)Nc1cccc(-c2cnc3cc(/C=C/c4ccccn4)ccn23)c1 [Example 186] was run?
**A.** 0.019 µM

**Q.** What about the IC50 [1, 3] of the same compound?
**A.** 0.32 µM

**Q.** With COc1ncc(-c2ccn3c(-c4cccc(NC(=O)NCC(F)(F)F)c4)cnc3c2)cc1C [Example 188] as the compound, how does the IC50 [2] read?
**A.** 0.09 µM

**Q.** And the IC50 [1, 3]?
**A.** 0.43 µM
